From ChEMBL document CHEMBL1149283, “Design, synthesis and evaluation of a PLG tripeptidomimetic based on a pyridine scaffold” (J Med Chem, 2004)
Where a SMILES comes first, the peptide text is derived from it.

How the values were obtained:
Assay type in all cases: functional, cell-based
Conditions in all cases: NIH3T3
[1] = molecular target: D(2) dopamine receptor (Homo sapiens) (UniProt P14416); experiment: Activity at human dopamine D2 receptor in NIH/3T3 cells assessed as enhancement of NPA-stimulated beta-galactosidase activity at 50 nM after 5 days by R-SAT assay
Chain of D(2) dopamine receptor (Homo sapiens) (P14416 whole entry): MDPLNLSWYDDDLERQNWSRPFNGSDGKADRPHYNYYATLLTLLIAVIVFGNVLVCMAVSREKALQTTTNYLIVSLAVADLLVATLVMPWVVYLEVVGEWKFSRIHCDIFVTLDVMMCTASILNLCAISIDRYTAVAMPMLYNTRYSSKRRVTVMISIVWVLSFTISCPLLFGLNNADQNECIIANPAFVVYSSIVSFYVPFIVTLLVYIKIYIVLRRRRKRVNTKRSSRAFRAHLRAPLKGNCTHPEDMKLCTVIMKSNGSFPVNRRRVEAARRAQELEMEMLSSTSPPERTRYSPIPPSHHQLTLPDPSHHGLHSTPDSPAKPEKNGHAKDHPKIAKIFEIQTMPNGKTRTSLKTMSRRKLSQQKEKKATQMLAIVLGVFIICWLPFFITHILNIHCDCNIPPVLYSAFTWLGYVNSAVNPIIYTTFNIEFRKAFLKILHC

[2] = molecular target: D(2) dopamine receptor (Homo sapiens) (UniProt P14416); experiment: Activity at human dopamine D2 receptor in NIH/3T3 cells assessed as enhancement of NPA-stimulated beta-galactosidase activity at 100 nM after 5 days by R-SAT assay
[3] = molecular target: D(2) dopamine receptor (Homo sapiens) (UniProt P14416); experiment: Activity at human dopamine D2 receptor in NIH/3T3 cells assessed as enhancement of NPA-stimulated beta-galactosidase activity at 10 nM after 5 days by R-SAT assay

Row | SMILES | Activity [1] [%] | Activity [2] [%] | Activity [3] [%]
1 | CC(C)Cc1c(C(=O)[C@@H]2CCCN2)ccnc1OCC(N)=O | 135 | 117 | 146
2 | CC(C)C[C@H](NC(=O)[C@@H]1CCCN1)C(=O)NCC(N)=O (H-Pro-Leu-Gly-NH2) | 104 | 98 | 115
